Reference: patent publication EP4417602A1, “SUBSTITUTED PYRAZOLE CARBOXAMIDES, SALTS THEREOF AND THEIR USE AS HERBICIDALLY ACTIVE SUBSTANCES” (Bayer AG, priority 2023, dated 2024)

Experiments:
DIGSA = test: A. Herbicidal pre-emergence action on harmful plants (Tables A); type: in vivo, Digitaria sanguinalis
Outline: (§1)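 Greenhouse pre-emergence test: compound applied to the soil surface at 1280 g/ha or below, and herbicidal effect rated visually at ca. 3 weeks on a 0–100% scale against untreated plants.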

SETVI = test: as above; type: in vivo, Setaria viridis; details: visual grading after ca. 3 weeks vs untreated controls, 100% = plants have died off, 0% = as control plants
Outline: as §1

POAAN = test: as above; type: in vivo, Poa annua
Outline: as §1

STEME = test: as above; type: in vivo, Stellaria media; details: visual grading after ca. 3 weeks vs untreated controls, 100% = plants have died off, 0% = as control plants
Outline: as §1

KCHSC = test: as above; type: in vivo, Kochia scoparia; details: application rate 1280 g/ha; visual grading after ca. 3 weeks vs untreated controls; 100% = plants have died off, 0% = as control plants
Text: Seeds of mono- and dicotyledonous weed plants were sown in plastic pots (double sowings with one species of mono- and one species of dicotyledonous weed plants per pot), in sandy loam, and covered with soil. The compounds according to the invention, formulated in the form of wettable powders (WP) or as emulsifiable concentrates (EC), were applied to the surface of the covering soil as aqueous suspension or emulsion, with the addition of 0.5% of an additive, at an application rate of 6001 of water per hectare (converted). Following treatment, the pots were placed in a greenhouse and kept under optimum growth conditions for the test plants. The visual grading of the damage to the test plants was carried out after ca. 3 weeks in comparison to untreated controls (herbicidal effect in percent (%): 100% effect = plants have died off, 0% effect = as control plants). Tables A1 to A12, below, show the effects of selected compounds of the general formula (I) according to table 1 on various harmful plants and an application rate corresponding to 1280 g/ha or below obtained by the experimental procedure mentioned above. Table A1: pre-emergence activity at 1280g/ha against ABUTH in %

AMARE = test: as above; type: in vivo, Amaranthus retroflexus
Outline: as §1

VERPE = test: B. Herbicidal post-emergence action on harmful plants (Tables B); type: in vivo, Veronica persica; details: application rate 1280 g/ha; Table B11a
Outline: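 Activity was scored visually as % damage (100% = dead, 0% = like untreated) about 3 weeks after treatment. Plants at the one-leaf stage, 2-3 weeks old, were sprayed with WP/EC formulations plus 0.5% additive (600 L/ha water, up to 1280 g/ha). Plants were grown in sandy loam in a greenhouse.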

MATIN = test: A. Herbicidal pre-emergence action on harmful plants (Tables A); type: in vivo, Matricaria inodora; details: visual grading after ca. 3 weeks vs untreated controls, 100% = plants have died off, 0% = as control plants
Outline: as §1

[1] = application rate 1280 g/ha, visual grading after ca. 3 weeks vs untreated controls, 100% = plants have died off, 0% = as control plants

COCc1nn(Cc2ccccc2)cc1C(=O)N1CCCC1Cc1ccccc1F (racemic) [Example I-024]
pre-emergence activity against DIGSA (DIGSA; application rate 320 g/ha, Table A12b): 90% | pre-emergence activity against DIGSA (DIGSA; application rate 1280 g/ha, Table A12a): 90% | pre-emergence activity against SETVI (SETVI; application rate 80 g/ha): 90% | pre-emergence activity against SETVI (SETVI; application rate 320 g/ha): 90% | pre-emergence activity against SETVI (SETVI; application rate 1280 g/ha): 90% | pre-emergence activity against POAAN (POAAN; application rate 80 g/ha, Table A7c): 90% | pre-emergence activity against POAAN (POAAN; application rate 320 g/ha, Table A7b): 90% | pre-emergence activity against POAAN (POAAN; [1]): 100% | pre-emergence activity against STEME (STEME; application rate 320 g/ha): 90% | pre-emergence activity against STEME (STEME; application rate 1280 g/ha): 100% | pre-emergence activity against KCHSC (KCHSC): 90% | pre-emergence activity against AMARE (AMARE; application rate 320 g/ha, Table A8b): 90% | pre-emergence activity against AMARE (AMARE; [1]): 90% | post-emergence activity against VERPE (VERPE): 90% | pre-emergence activity against MATIN (MATIN; application rate 80 g/ha): 90% | pre-emergence activity against MATIN (MATIN; application rate 320 g/ha): 90% | pre-emergence activity against MATIN (MATIN; application rate 1280 g/ha): 90%
